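The compound was tested at five concentrations on cells cultured in 96-well plates, with a 48-hour exposure period. GI50 marks 50% less growth. At the TGI there is no net growth.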
Tested on: SNB-75 CNS
Test: NCI anticancer screen, dose series, 48 h

Structure (SMILES) | GI50 [µM] | TGI [µM]
O=C1/C(=C\c2cccn2Cc2ccccc2)c2ccccc2N1c1c(Cl)cccc1Cl | > 22.9 | > 100
Cc1sc2nc(NCCc3c[nH]c4ccc(Cl)cc34)[nH]c(=O)c2c1C | 1.65 | 5.21
CSC1(CC(=O)N(C)C)C(=O)Nc2ccccc21 (centres undefined) |  | > 100
COc1cc(/C=C2\C(=O)Nc3ccc(F)cc32)cc(OC)c1OC | 9.18 | 79.3
C#C[C@]1(O)CC[C@H]2[C@@H]3CC=C4c5sc(Nc6ccccc6)nc5CC[C@]4(C)[C@H]3CC[C@@]21C | 0.858 | 7.41
O=C(O)c1c(-c2nccc3ccccc23)[nH]c(-c2ccccc2)c1S(=O)(=O)O |  | > 100
COc1ccc(/C=c2/sc3n(c2=O)C(c2ccc(OC)c(OC)c2)C2=C(N=3)c3cc(F)ccc3OC2)cc1 (centres undefined) | 16.1 | 98.2
O=C(O)c1cc(O)c2c(c1)C(C1c3cc(C(=O)O)cc(O)c3C(=O)c3c(OC4OC(CO)C(O)C(O)C4O)cccc31)c1cccc(OC3OC(CO)C(O)C(O)C3O)c1C2=O (centres undefined) | > 100 | > 100
O=C(CN(C1CCCCC1)C1CCCCC1)Nc1ccc(S(=O)(=O)c2ccc(NC(=O)CN(C3CCCCC3)C3CCCCC3)cc2)cc1 | 2.27 | 9.32
O=c1[nH]c2cc(Cl)ccc2n1C1CCN(CCCC(c2ccc(F)cc2)c2ccc(F)cc2)CC1 | 1.27 | 2.73
Cc1c[n+](Cc2ccc3ccccc3c2)cn1Cc1ccc2ccccc2c1 | 1.09 | 2.51
Nc1nc(Br)nc2c1ncn2C1CC(O)C(CO)O1 (centres undefined) | > 100 | > 100
Nc1nc(Nc2ccccc2)c2ncn(Cc3cc4c(cc3Br)OCO4)c2n1 | 0.0623 | 25.3
CCOC(=O)N1CCN(C(=O)c2ccc(C(F)(F)F)nc2Nc2cc(Cl)ccc2C)CC1 | 1.41 | 24.1
Cc1ccc(Nc2nc(N)c(C(=O)c3ccc(C#N)cc3)s2)cc1 | 0.241 | 8.11
O=C1c2ccn(CCCCNC(CO)(CO)CO)c2C(=O)c2c1c(O)c1ccccc1c2O | 11.9 | 47.2
COc1ccc(-c2cc(-c3cccn3C)c(C#N)c(N)n2)cc1OC | 21.1 | 70.9
CN1CCc2c(Sc3ccc(C(=O)NO)cc3)c3ccccc3n2C1 | 0.674 | 3.79
COc1ccc(CNc2c3ccccc3nc3ccccc23)cc1OC | 2.39 | 11.3
CN(C)c1ccc2nc3ccc(=O)cc-3sc2c1 | 11.7 | > 100
CC(=O)c1c(CBr)n([O-])c2ccccc2[n+]1=O | 14.7 | 29.6
O=C(Nc1ccc(Cl)cc1F)c1cc(Br)ccc1O | 0.468 | 2.87
Nc1c(C(=O)N/N=C/c2ccc(-c3ccc(Cl)cc3)o2)cnn1-c1ccnc2c(C(F)(F)F)cccc12 | 65.4 | > 100
CCN(CC)CC(C)(C)C(=O)/C=C/c1ccc(Cl)c(Cl)c1 | 1.3 | 2.93
CCN(CC)CCNCC(=O)Oc1ccc(/C=C/C(=O)CC(=O)/C=C/c2ccc(OC(=O)CNCCN(CC)CC)c(OC)c2)cc1OC | 6.31 | 28.1
O=C(O)c1ccccc1-c1ccccc1C(=O)Nc1ccc2c(c1)Cc1cc(F)ccc1-2 |  | > 100

Tested on: KM12 colon
Test: NCI anticancer screen, dose series, 48 h

Structure (SMILES) | GI50 [µM] | TGI [µM]
CC(=O)Oc1ccccc1C(=O)N=C1[Se]CCN1C(=O)c1ccccc1OC(C)=O | 1.1 | > 100
Cc1n(Cc2ccc3ccccc3c2)cc[n+]1Cc1ccc2ccccc2c1 | 0.592 | 2.04
O=C(O)Cc1c(O)ccc2ccccc12 |  | > 100
O=C1/C(=C\c2cccn2Cc2ccccc2)c2ccccc2N1c1c(Cl)cccc1Cl | 0.866 | > 53.4
Cc1sc2nc(NCCc3c[nH]c4ccc(Cl)cc34)[nH]c(=O)c2c1C | 2.17 | 5.54
CSC1(CC(=O)N(C)C)C(=O)Nc2ccccc21 (centres undefined) |  | > 100
COc1cc(/C=C2\C(=O)Nc3ccc(F)cc32)cc(OC)c1OC | 26.2 | > 100
C#C[C@]1(O)CC[C@H]2[C@@H]3CC=C4c5sc(Nc6ccccc6)nc5CC[C@]4(C)[C@H]3CC[C@@]21C | 2.66 | 12.7
O=C(O)c1c(-c2nccc3ccccc23)[nH]c(-c2ccccc2)c1S(=O)(=O)O |  | > 100
COc1ccc(/C=c2/sc3n(c2=O)C(c2ccc(OC)c(OC)c2)C2=C(N=3)c3cc(F)ccc3OC2)cc1 (centres undefined) | 18.1 | > 79.2
Cc1cn2c(/C=C3/C(=O)Nc4ccccc43)c(-c3ccc(Cl)cc3)nc2s1 | 10.5 | 23.2
O=C(O)c1cc(O)c2c(c1)C(C1c3cc(C(=O)O)cc(O)c3C(=O)c3c(OC4OC(CO)C(O)C(O)C4O)cccc31)c1cccc(OC3OC(CO)C(O)C(O)C3O)c1C2=O (centres undefined) | > 100 | > 100
O=C(CN(C1CCCCC1)C1CCCCC1)Nc1ccc(S(=O)(=O)c2ccc(NC(=O)CN(C3CCCCC3)C3CCCCC3)cc2)cc1 | 0.585 | 2.05
O=c1[nH]c2cc(Cl)ccc2n1C1CCN(CCCC(c2ccc(F)cc2)c2ccc(F)cc2)CC1 | 1.68 | 3.27
Cc1c[n+](Cc2ccc3ccccc3c2)cn1Cc1ccc2ccccc2c1 | 1.65 | 3.1
Nc1nc(Br)nc2c1ncn2C1CC(O)C(CO)O1 (centres undefined) | > 100 | > 100
Nc1nc(Nc2ccccc2)c2ncn(Cc3cc4c(cc3Br)OCO4)c2n1 | 0.0418 | 21

Structure (SMILES) | GI50 [µM] | TGI [µM]
CCOC(=O)N1CCN(C(=O)c2ccc(C(F)(F)F)nc2Nc2cc(Cl)ccc2C)CC1 | 11.2 | 31.2
Cc1ccc(Nc2nc(N)c(C(=O)c3ccc(C#N)cc3)s2)cc1 | 0.338 | > 87.1
O=C1c2ccn(CCCCNC(CO)(CO)CO)c2C(=O)c2c1c(O)c1ccccc1c2O | 0.592 | 1.76
COc1ccc(-c2cc(-c3cccn3C)c(C#N)c(N)n2)cc1OC | > 100 | > 100
CN1CCc2c(Sc3ccc(C(=O)NO)cc3)c3ccccc3n2C1 | 1.72 | 3.67
COc1ccc(CNc2c3ccccc3nc3ccccc23)cc1OC | 3.65 | 15.5
CN(C)c1ccc2nc3ccc(=O)cc-3sc2c1 | 0.781 | > 78.7
CC(=O)c1c(CBr)n([O-])c2ccccc2[n+]1=O | 15 | 29.2
O=C(Nc1ccc(Cl)cc1F)c1cc(Br)ccc1O | 2.13 | 5.92
C#CC(=O)Nc1cccc(Nc2nc3c(c(NCc4ccccc4)n2)CCCC3)c1 | 0.0225 | 0.337
Nc1c(C(=O)N/N=C/c2ccc(-c3ccc(Cl)cc3)o2)cnn1-c1ccnc2c(C(F)(F)F)cccc12 | > 100 | > 100
CCN(CC)CC(C)(C)C(=O)/C=C/c1ccc(Cl)c(Cl)c1 | 1.67 | 3.28
CCN(CC)CCNCC(=O)Oc1ccc(/C=C/C(=O)CC(=O)/C=C/c2ccc(OC(=O)CNCCN(CC)CC)c(OC)c2)cc1OC | 3.5 | 31.6
O=C(O)c1cccc(OCCO)c1 |  | > 100
COc1ccc(C2C(C#N)=C(N)OC3=C2COc2ccc(F)cc23)cc1OC (centres undefined) | 23.5 | 69.2
CCOC(=O)C1=C(C)N(N)C(=S)NC1c1ccc(C)cc1 (centres undefined) | 64.4 | > 100
O=C(O)c1ccccc1-c1ccccc1C(=O)Nc1ccc2c(c1)Cc1cc(F)ccc1-2 |  | > 100

Tested on: PC-3 prostate
Test: NCI anticancer screen, dose series, 48 h

Structure (SMILES) | GI50 [µM] | TGI [µM]
CC(=O)Oc1ccccc1C(=O)N=C1[Se]CCN1C(=O)c1ccccc1OC(C)=O | 1.06 | 4.88

— PubChem BioAssay (NCI)
